Test results: publication PMC10600239, “Selective MCL-1 inhibitor ABBV-467 is efficacious in tumor models but is associated with cardiac troponin increases in patients” (Communications Medicine, 2023)

What was measured:
SKBR3 cells = assay: Cell viability of parental and BAK-, BAX-, BCL2L11-, PMAIP1-deficient SKBR3 cells (CellTiter-Glo); type: cell-based; conditions: SKBR3, 24 h
Protocol: (§1) Fig. 2 Apoptosis induced by ABBV-467 is mechanism based and induces cell death in MCL-1-dependent cell lines after short target engagement periods. H929 cells were treated with ABBV-467 in the presence or absence of the pan-caspase inhibitor z-VAD-fmk (50 µM) and the impact on caspase-3/7 activation (a), mitochondrial membrane potential (ΔΨm; b), and apoptosis (c) determined. Alternatively, BAK-deficient SKBR3 cells were treated with ABBV-467 for 24 h and the impact on cell viability compared with the parental cell line, determined by CellTiter-Glo. Inset depicts a western blot of BAK and BAX expression in SKBR3 cell variants using GAPDH as a loading control. Each of the 3 proteins were probed on separate blots (d). Data in (a–d) are presented as the mean ± standard error of the mean. H929 and AMO-1 cells were treated with ABBV-467 at the indicated concentrations and the impact on caspase-3/7 activation and viability (DRAQ7-positive) cells determined over time by Incucyte®. Data are presented as the mean ± standard deviation (e). H929 or AMO-1 cells were cultured in media containing 10% human serum and treated with ABBV-467 for the indicated contact times. Cells were subsequently washed 3 times with drug-free media and incubated in drug-free media for the remainder of the 24-h treatment period at 37 °C before cell viability was determined by CellTiter-Glo. Mean EC50 and EC90 values were determined from the resulting dose-response curves from at least 3 independent experiments, each assessed in quadruplicate, and depict the mean ± standard error of the mean. Presented ABBV-467 dose-response curves in H929 and AMO-1 cells were compiled from at least 3 independent experiments (f).
Supplementary Fig. S5: SKBR3 cells deficient in BAX, BAK , PM AIP 1 (gene encoding the protein NOXA),
BCL 2L 11 (gene encoding the protein BIM) were treated with ABBV-467 for 24 hours and the impact on
cell death compared to the parental cell line determined by CellTiter- Glo™.

H929 cells = assay: Caspase-3/7 activation and viability (DRAQ7) over time by Incucyte; type: cell-based, human
Protocol: as §1

Cc1c(Cl)c2c(Cl)c(C)c1-c1c(-c3ccc(F)cc3)sc3ncnc(c13)O[C@@H](C(=O)O)Cc1cc(ccc1OCc1ccnc(-c3ccc(OC[C@H]4COCCO4)cc3)n1)OC[C@@H](CN1CCN(C)CC1)O2 [ABBV-467]
effect of BAK deletion on activity (SKBR3 cells): completely inhibited
effect of deletion of BAX, BIM or NOXA genes on activity (SKBR3 cells): did not impact activity
Caspase-3/-7 Activation (H929 cells; ABBV-467 0.01 nM, 0 hours): 232.365
Caspase-3/-7 Activation (H929 cells; ABBV-467 0.01 nM, 1 hours): 224.632
Caspase-3/-7 Activation (H929 cells; ABBV-467 0.01 nM, 2 hours): 270.553
Caspase-3/-7 Activation (H929 cells; ABBV-467 0.01 nM, 3 hours): 259.728
Caspase-3/-7 Activation (H929 cells; ABBV-467 0.01 nM, 4 hours): 277.62
Caspase-3/-7 Activation (H929 cells; ABBV-467 0.01 nM, 5 hours): 289.07
Caspase-3/-7 Activation (H929 cells; ABBV-467 0.01 nM, 6 hours): 301.552
Caspase-3/-7 Activation (H929 cells; ABBV-467 0.01 nM, 7 hours): 311.821
Caspase-3/-7 Activation (H929 cells; ABBV-467 0.01 nM, 8 hours): 334.669
Caspase-3/-7 Activation (H929 cells; ABBV-467 0.01 nM, 9 hours): 348.392
Caspase-3/-7 Activation (H929 cells; ABBV-467 0.01 nM, 10 hours): 365.28
Caspase-3/-7 Activation (H929 cells; ABBV-467 0.01 nM, 11 hours): 391.805
Caspase-3/-7 Activation (H929 cells; ABBV-467 0.01 nM, 12 hours): 438.261
Caspase-3/-7 Activation (H929 cells; ABBV-467 0.01 nM, 13 hours): 454.339
Caspase-3/-7 Activation (H929 cells; ABBV-467 0.01 nM, 14 hours): 484.741
Caspase-3/-7 Activation (H929 cells; ABBV-467 0.1 nM, 0 hours): 225.588
Caspase-3/-7 Activation (H929 cells; ABBV-467 0.1 nM, 1 hours): 235.59
Caspase-3/-7 Activation (H929 cells; ABBV-467 0.1 nM, 2 hours): 274.692
Caspase-3/-7 Activation (H929 cells; ABBV-467 0.1 nM, 3 hours): 258.216
Caspase-3/-7 Activation (H929 cells; ABBV-467 0.1 nM, 4 hours): 255.874
Caspase-3/-7 Activation (H929 cells; ABBV-467 0.1 nM, 5 hours): 269.765
Caspase-3/-7 Activation (H929 cells; ABBV-467 0.1 nM, 6 hours): 277.457
Caspase-3/-7 Activation (H929 cells; ABBV-467 0.1 nM, 7 hours): 313.21
Caspase-3/-7 Activation (H929 cells; ABBV-467 0.1 nM, 8 hours): 322.526
Caspase-3/-7 Activation (H929 cells; ABBV-467 0.1 nM, 9 hours): 349.891
Caspase-3/-7 Activation (H929 cells; ABBV-467 0.1 nM, 10 hours): 382.789
Caspase-3/-7 Activation (H929 cells; ABBV-467 0.1 nM, 11 hours): 408.8
Caspase-3/-7 Activation (H929 cells; ABBV-467 0.1 nM, 12 hours): 435.203
Caspase-3/-7 Activation (H929 cells; ABBV-467 0.1 nM, 13 hours): 463.242
Caspase-3/-7 Activation (H929 cells; ABBV-467 0.1 nM, 14 hours): 524.814
Caspase-3/-7 Activation (H929 cells; ABBV-467 1 nM, 0 hours): 207.355
Caspase-3/-7 Activation (H929 cells; ABBV-467 1 nM, 1 hours): 234.094
Caspase-3/-7 Activation (H929 cells; ABBV-467 1 nM, 2 hours): 278.959
Caspase-3/-7 Activation (H929 cells; ABBV-467 1 nM, 3 hours): 292.278
Caspase-3/-7 Activation (H929 cells; ABBV-467 1 nM, 4 hours): 394.898
Caspase-3/-7 Activation (H929 cells; ABBV-467 1 nM, 5 hours): 570.705
Caspase-3/-7 Activation (H929 cells; ABBV-467 1 nM, 6 hours): 716.626
Caspase-3/-7 Activation (H929 cells; ABBV-467 1 nM, 7 hours): 887.617
Caspase-3/-7 Activation (H929 cells; ABBV-467 1 nM, 8 hours): 1099.54
Caspase-3/-7 Activation (H929 cells; ABBV-467 1 nM, 9 hours): 1287.07
Caspase-3/-7 Activation (H929 cells; ABBV-467 1 nM, 10 hours): 1419.14
Caspase-3/-7 Activation (H929 cells; ABBV-467 1 nM, 11 hours): 1610.17
Caspase-3/-7 Activation (H929 cells; ABBV-467 1 nM, 12 hours): 1722.67
Caspase-3/-7 Activation (H929 cells; ABBV-467 1 nM, 13 hours): 1826.71
Caspase-3/-7 Activation (H929 cells; ABBV-467 1 nM, 14 hours): 1859.69
Caspase-3/-7 Activation (H929 cells; ABBV-467 10 nM, 0 hours): 233.175
Caspase-3/-7 Activation (H929 cells; ABBV-467 10 nM, 1 hours): 264.944
Caspase-3/-7 Activation (H929 cells; ABBV-467 10 nM, 2 hours): 553.515
Caspase-3/-7 Activation (H929 cells; ABBV-467 10 nM, 3 hours): 945.842
Caspase-3/-7 Activation (H929 cells; ABBV-467 10 nM, 4 hours): 1332.17
Caspase-3/-7 Activation (H929 cells; ABBV-467 10 nM, 5 hours): 1650.46
Caspase-3/-7 Activation (H929 cells; ABBV-467 10 nM, 6 hours): 1813.36
Caspase-3/-7 Activation (H929 cells; ABBV-467 10 nM, 7 hours): 2014.88
Caspase-3/-7 Activation (H929 cells; ABBV-467 10 nM, 8 hours): 2144.69
Caspase-3/-7 Activation (H929 cells; ABBV-467 10 nM, 9 hours): 2203.21
Caspase-3/-7 Activation (H929 cells; ABBV-467 10 nM, 10 hours): 2258.19
Caspase-3/-7 Activation (H929 cells; ABBV-467 10 nM, 11 hours): 2283.58
Caspase-3/-7 Activation (H929 cells; ABBV-467 10 nM, 12 hours): 2310.22
Caspase-3/-7 Activation (H929 cells; ABBV-467 10 nM, 13 hours): 2302.82
Caspase-3/-7 Activation (H929 cells; ABBV-467 10 nM, 14 hours): 2302.28
Caspase-3/-7 Activation (H929 cells; ABBV-467 100 nM, 0 hours): 208.608
Caspase-3/-7 Activation (H929 cells; ABBV-467 100 nM, 1 hours): 451.845
Caspase-3/-7 Activation (H929 cells; ABBV-467 100 nM, 2 hours): 1550.74
Caspase-3/-7 Activation (H929 cells; ABBV-467 100 nM, 3 hours): 2054.45
Caspase-3/-7 Activation (H929 cells; ABBV-467 100 nM, 4 hours): 2191.43
Caspase-3/-7 Activation (H929 cells; ABBV-467 100 nM, 5 hours): 2357.93
Caspase-3/-7 Activation (H929 cells; ABBV-467 100 nM, 6 hours): 2394.62
Caspase-3/-7 Activation (H929 cells; ABBV-467 100 nM, 7 hours): 2491.07
Caspase-3/-7 Activation (H929 cells; ABBV-467 100 nM, 8 hours): 2431.58
Caspase-3/-7 Activation (H929 cells; ABBV-467 100 nM, 9 hours): 2418.59
Caspase-3/-7 Activation (H929 cells; ABBV-467 100 nM, 10 hours): 2357.71
Caspase-3/-7 Activation (H929 cells; ABBV-467 100 nM, 11 hours): 2329.52
Caspase-3/-7 Activation (H929 cells; ABBV-467 100 nM, 12 hours): 2294.27
Caspase-3/-7 Activation (H929 cells; ABBV-467 100 nM, 13 hours): 2277.8
Caspase-3/-7 Activation (H929 cells; ABBV-467 100 nM, 14 hours): 2211.71
Caspase-3/-7 Activation (H929 cells; ABBV-467 100 nM, 15 hours): 2210.67
